Data from EP4813989A1, “CRYSTAL, PHARMACEUTICAL COMPOSITION, PREPARATION METHOD THEREFOR, AND USE THEREOF” (TYK Medicines, Inc., priority 2023, dated 2025).

Assays:
Type in all cases: physicochemical
[1] = Dynamic vapor sorption (DVS) hygroscopicity
Experimental: Dynamic vapor sorption (DVS) was used to investigate hygroscopicities of an active pharmaceutical ingredient in different crystal forms.
Determination method: • instrument: dynamic vapor sorption analyzer; temperature: 25°C; protective gas and flow rate: N2, 200 mL/min; • dm/dt: 0.002%/min; RH range: 0%RH-100%RH; cycle: 1 full cycle.

[2] = High-humidity test, related substances by HPLC; details: 90%RH±5%RH; for Impurity content RRT0.55 / Impurity content RRT0.66 / Impurity content RRT0.71 / Impurity content RRT0.94 / Impurity content RRT1.02 / Impurity content RRT1.06 / Impurity content RRT1.08 / Impurity content RRT1.15 / Total impurities: open
Description: An investigation method for the high-humidity test can be seen in Table 12 below.
Results of related substances in each crystal form under the high-humidity condition (90%RH±5%RH) can be seen in Table 16.
HPLC detection results of related substances under the high-humidity condition can be seen as follows: Table 16

[3] = Light exposure test, related substances by HPLC; details: for Impurity content RRT0.55 / Impurity content RRT0.66 / Impurity content RRT0.71 / Impurity content RRT0.94 / Impurity content RRT1.02 / Impurity content RRT1.06 / Impurity content RRT1.08 / Impurity content RRT1.15 / Total impurities: 4500lx±500lx, open
Description: An investigation method for the light exposure test can be seen in Table 13 below.
Results of related substances in each crystal form under the light exposure condition (4500lx±500lx) can be seen in Table 17.
HPLC detection results of related substances under the light exposure condition can be seen as follows: Table 17

[4] = Accelerated test, related substances by HPLC; details: 40°C±2°C, 75%RH±5%RH; for Impurity content RRT0.55 / Impurity content RRT0.66 / Impurity content RRT0.71 / Impurity content RRT0.94 / Impurity content RRT1.02 / Impurity content RRT1.06 / Impurity content RRT1.08 / Impurity content RRT1.15 / Total impurities: open
Experimental: An investigation method for the accelerated test can be seen in Table 14 below.
Change results of related substances in each crystal form under the accelerated condition (40°C±2°C, 75%RH±5%RH) can be seen in Table 18.
HPLC detection results of related substances under the accelerated condition can be seen as follows: Table 18

[5] = Flowability test (angle of repose); details: listed as amorphous sample
Experimental: A flowability determination method was as follows: an angle of repose was determined by using a device composed of 2 to 3 funnels connected in series in a staggered manner, and drug powder was slowly and uniformly passed through the funnels onto a stationary base with a diameter d, so as to form a symmetric powder pile with a single layer of powder at the bottom. During the formation of the powder pile, a height of the funnels was maintained within 2-4 cm from a top of the powder pile, a height h of the cone was determined, and the angle of repose was calculated as tanθ=h/(d/2).

For `C[C@@H](Nc1ccn2ncc(C3=NOC(C)(C)N3)c2n1)c1cc(F)cc(F)c1F` [amorphous form], the “Hygroscopicity (conclusion)” value [1] was “had hygroscopicity”, the DVS weight gain ([1]; humidity increased from 90% to 100%) was “approximately 3.5%” and the DVS weight loss ([1]; humidity reduced from 100% to 90%) was “approximately 1.5%”. The “Increase of impurity RRT1.02 content” value ([2]; 32 days) was 0.03%, the “Increase of impurity RRT1.08 content” value ([2]; 32 days) was 0.05% and the “Increase of total impurities” value ([2]; 32 days) was 0.10%. The “Impurity content RRT0.55” value ([2]; 0 day) was 0.03%, the “Impurity content RRT0.66” value ([2]; 0 day) was 0.20% and the “Impurity content RRT0.71” value ([2]; 0 day) was 0.16%. The “Impurity content RRT0.94” value ([2]; 0 day) was 0.04%, the “Impurity content RRT1.02” value ([2]; 0 day) was 0.29% and the “Impurity content RRT1.06” value ([2]; 0 day) was 0.07%. The “Impurity content RRT1.08” value ([2]; 0 day) was 0.18%, the “Impurity content RRT1.15” value ([2]; 0 day) was 0.04% and the Total impurities ([2]; 0 day) was 1.01%. For the same compound, the “Impurity content RRT0.55” value ([2]; 5 days) was 0.03%, the “Impurity content RRT0.66” value ([2]; 5 days) was 0.21% and the “Impurity content RRT0.71” value ([2]; 5 days) was 0.17%. For the same compound, the “Impurity content RRT0.94” value ([2]; 5 days) was 0.03%, the “Impurity content RRT1.02” value ([2]; 5 days) was 0.31% and the “Impurity content RRT1.06” value ([2]; 5 days) was 0.09%. The “Impurity content RRT1.08” value ([2]; 5 days) was 0.19%, the “Impurity content RRT1.15” value ([2]; 5 days) was 0.04% and the Total impurities ([2]; 5 days) was 1.07%. The “Impurity content RRT0.55” value ([2]; 11 days) was 0.03%, the “Impurity content RRT0.66” value ([2]; 11 days) was 0.20% and the “Impurity content RRT0.71” value ([2]; 11 days) was 0.16%. The “Impurity content RRT0.94” value ([2]; 11 days) was 0.03%, the “Impurity content RRT1.02” value ([2]; 11 days) was 0.31% and the “Impurity content RRT1.06” value ([2]; 11 days) was 0.09%. For the same compound, the “Impurity content RRT1.08” value ([2]; 11 days) was 0.25%, the “Impurity content RRT1.15” value ([2]; 11 days) was 0.03% and the Total impurities ([2]; 11 days) was 1.11%. The “Impurity content RRT0.55” value ([2]; 32 days) was 0.03%, the “Impurity content RRT0.66” value ([2]; 32 days) was 0.20% and the “Impurity content RRT0.71” value ([2]; 32 days) was 0.18%. For the same compound, the “Impurity content RRT0.94” value ([2]; 32 days) was 0.04%, the “Impurity content RRT1.02” value ([2]; 32 days) was 0.31% and the “Impurity content RRT1.06” value ([2]; 32 days) was 0.06%. The “Impurity content RRT1.08” value ([2]; 32 days) was 0.23%, the “Impurity content RRT1.15” value ([2]; 32 days) was 0.05% and the Total impurities ([2]; 32 days) was 1.11%. For the same compound, the “Increase of impurity RRT0.66 content” value ([3]; 4500 lx±500 lx, 32 days) was 0.03%, the “Increase of impurity RRT0.71 content” value ([3]; 4500 lx±500 lx, 32 days) was 0.05% and the “Increase of impurity RRT1.02 content” value ([3]; 4500 lx±500 lx, 32 days) was 0.06%. The “Increase of impurity RRT1.08 content” value ([3]; 4500 lx±500 lx, 32 days) was 0.19%, the “Increase of total impurities” value ([3]; 4500 lx±500 lx, 32 days) was 0.37% and the “Impurity content RRT0.55” value ([3]; 0 day) was 0.03%. For the same compound, the “Impurity content RRT0.66” value ([3]; 0 day) was 0.20%, the “Impurity content RRT0.71” value ([3]; 0 day) was 0.16% and the “Impurity content RRT0.94” value ([3]; 0 day) was 0.04%. The “Impurity content RRT1.02” value ([3]; 0 day) was 0.29%, the “Impurity content RRT1.06” value ([3]; 0 day) was 0.07% and the “Impurity content RRT1.08” value ([3]; 0 day) was 0.18%. For the same compound, the “Impurity content RRT1.15” value ([3]; 0 day) was 0.04%, the Total impurities ([3]; 0 day) was 1.01% and the “Impurity content RRT0.55” value ([3]; 5 days) was 0.04%. The “Impurity content RRT0.66” value ([3]; 5 days) was 0.20%, the “Impurity content RRT0.71” value ([3]; 5 days) was 0.17% and the “Impurity content RRT0.94” value ([3]; 5 days) was 0.03%. The “Impurity content RRT1.02” value ([3]; 5 days) was 0.32%, the “Impurity content RRT1.06” value ([3]; 5 days) was 0.08% and the “Impurity content RRT1.08” value ([3]; 5 days) was 0.21%. The “Impurity content RRT1.15” value ([3]; 5 days) was 0.04%, the Total impurities ([3]; 5 days) was 1.09% and the “Impurity content RRT0.55” value ([3]; 11 days) was 0.03%. The “Impurity content RRT0.66” value ([3]; 11 days) was 0.21%, the “Impurity content RRT0.71” value ([3]; 11 days) was 0.17% and the “Impurity content RRT0.94” value ([3]; 11 days) was 0.03%. For the same compound, the “Impurity content RRT1.02” value ([3]; 11 days) was 0.33%, the “Impurity content RRT1.06” value ([3]; 11 days) was 0.09% and the “Impurity content RRT1.08” value ([3]; 11 days) was 0.28%. The “Impurity content RRT1.15” value ([3]; 11 days) was 0.03%, the Total impurities ([3]; 11 days) was 1.17% and the “Impurity content RRT0.55” value ([3]; 32 days) was 0.05%. The “Impurity content RRT0.66” value ([3]; 32 days) was 0.23%, the “Impurity content RRT0.71” value ([3]; 32 days) was 0.21% and the “Impurity content RRT0.94” value ([3]; 32 days) was 0.06%. For the same compound, the “Impurity content RRT1.02” value ([3]; 32 days) was 0.35%, the “Impurity content RRT1.06” value ([3]; 32 days) was 0.07% and the “Impurity content RRT1.08” value ([3]; 32 days) was 0.37%. The “Impurity content RRT1.15” value ([3]; 32 days) was 0.05%, the Total impurities ([3]; 32 days) was 1.38% and the “Increase of impurity RRT1.08 content” value ([4]; 32 days) was 0.03%. The “Impurity content RRT0.55” value ([4]; 0 day) was 0.03%, the “Impurity content RRT0.66” value ([4]; 0 day) was 0.20% and the “Impurity content RRT0.71” value ([4]; 0 day) was 0.16%. For the same compound, the “Impurity content RRT0.94” value ([4]; 0 day) was 0.04%, the “Impurity content RRT1.02” value ([4]; 0 day) was 0.29% and the “Impurity content RRT1.06” value ([4]; 0 day) was 0.07%. The “Impurity content RRT1.08” value ([4]; 0 day) was 0.18%, the “Impurity content RRT1.15” value ([4]; 0 day) was 0.04% and the Total impurities ([4]; 0 day) was 1.01%. The “Impurity content RRT0.55” value ([4]; 5 days) was 0.04%, the “Impurity content RRT0.66” value ([4]; 5 days) was 0.20% and the “Impurity content RRT0.71” value ([4]; 5 days) was 0.17%. The “Impurity content RRT0.94” value ([4]; 5 days) was 0.03%, the “Impurity content RRT1.02” value ([4]; 5 days) was 0.32% and the “Impurity content RRT1.06” value ([4]; 5 days) was 0.08%. For the same compound, the “Impurity content RRT1.08” value ([4]; 5 days) was 0.22%, the “Impurity content RRT1.15” value ([4]; 5 days) was 0.04% and the Total impurities ([4]; 5 days) was 1.09%. For the same compound, the “Impurity content RRT0.55” value ([4]; 11 days) was 0.03%, the “Impurity content RRT0.66” value ([4]; 11 days) was 0.20% and the “Impurity content RRT0.71” value ([4]; 11 days) was 0.17%. The “Impurity content RRT0.94” value ([4]; 11 days) was 0.03%, the “Impurity content RRT1.02” value ([4]; 11 days) was 0.31% and the “Impurity content RRT1.06” value ([4]; 11 days) was 0.08%. The “Impurity content RRT1.08” value ([4]; 11 days) was 0.24%, the “Impurity content RRT1.15” value ([4]; 11 days) was 0.03% and the Total impurities ([4]; 11 days) was 1.10%. For the same compound, the “Impurity content RRT0.55” value ([4]; 32 days) was 0.04%, the “Impurity content RRT0.66” value ([4]; 32 days) was 0.20% and the “Impurity content RRT0.71” value ([4]; 32 days) was 0.18%. The “Impurity content RRT0.94” value ([4]; 32 days) was 0.04%, the “Impurity content RRT1.02” value ([4]; 32 days) was 0.29% and the “Impurity content RRT1.06” value ([4]; 32 days) was 0.06%. The “Impurity content RRT1.08” value ([4]; 32 days) was 0.21%, the “Impurity content RRT1.15” value ([4]; 32 days) was 0.03% and the Total impurities ([4]; 32 days) was 1.05%. For the same compound, the angle of repose [5] was “approximately 37.5 °”.
